Source: PMC4326127, “Collagen Inhibitory Peptide R1R2 Mediates Vascular Remodeling by Decreasing Inflammation and Smooth Muscle Cell Activation” (PLoS ONE, 2015)
“Also recorded” adds a separate entry of the source.

How the values were obtained:
FN = assay: IHC for FN in ligated carotid artery; assay type: in vivo, FVB/NJ (FVB) mice; details: for FN IHC intensity in intima-media area: mean ± SEM
Experimental: (§1) Animals were anesthetized with isoflurane inhalation. The left common carotid artery was exposed, dissected free from the surrounding connective tissue and completely ligated with 6-0 silk suture just proximal to the carotid bifurcation. […] 4–10 mice were included in each experimental group.
(§2) Paraffin sections selected from the first mm of the carotid artery in each group were used for immunohistochemistry (IHC). […] Sections were then incubated with appropriate biotinylated secondary antibodies followed by avidin-biotin immunoperoxidase system (Vector Laboratories, Burlingame, CA). Liquid DAB Substrate Chromogen system (Dako, Carpinteria, CA) was used for detection.
(§3) Quantitative IHC analysis was performed on digital images captured with a 20x objective by using Image-Pro Plus software. Data from 3–6 mice for each group were averaged, and the average values ± SEM were shown. For FN, collagen type I, SM-MHC and SM α-actin, color digital images were transformed into gray scale, and the sum of the optical densities from the intima+media area in each section was determined. […] The percent of positive cells is reported as the proliferation index. […] The intima+media region was traced manually. The percent of positively stained area in intima+media to the total traced area was assessed.
(§4) For in vivo experiments, the data are shown as the mean ± SEM. For in vitro experiments, the data shown are the means ± SD of a representative experiment, at least 3 independent experiments were performed. One-way ANOVA with post-hoc testing were used for data analysis with GraphPad Prism software (GraphPad, San Diego, CA). If normality test failed, nonparametric Kruskal-Wallis test followed by Dunn's post-hoc test were used. P > 0.05 was not considered significant.

ICAM-1 [1] = assay: ICAM-1 IHC in ligated carotid artery; assay type: in vivo, FVB/NJ (FVB) mice; details: 7 days after ligation; percent of positively stained area; mean ± SEM; R1R2 n = 7, control peptide n = 8
Experimental: as §1, §2, §3
(§5) For in vivo experiments, the data are shown as the mean ± SEM. […]

[2] = test system: binding of FN to collagen type I; assay: Solid-phase binding assay (competitive ELISA) of FN to collagen; parameters: species or system human FN; rat collagen type I; details: 4 nM FN incubated with peptide at 4°C overnight, then on wells coated with 10 μg/ml collagen I overnight at 37°C; anti-FN/HRP, ABTS, A405
Experimental: Human FN and rat collagen type I for competitive ELISA were purchased from Sigma-Aldrich (St. Louis, MO).
The FN-peptide solutions were added to collagen or BSA-coated wells, and the plates were incubated overnight at 37°C. The wells were washed and a rabbit anti-FN antibody was added for 90 minutes at room temperature. Wells were washed and then incubated with a horseradish peroxidase-conjugated secondary antibody. After washing was completed, peroxidase activity was quantified using 2,2'-azino-bis-(3-ethylbenthiazoline-6-sulfonic acid). Measurements were done at 405 nm (A405) using a SpectraMax M5 microplate reader (Molecular Device, Sunnyvale, CA).
Bound FN was detected with an anti-FN antibody followed by HRP-conjugated secondary antibody, and ABTS as described in Methods. The absorbance at 405nm was quantitated.

A7r5 SMCs = assay: A7r5 SMC growth study; assay type: cell-based
Experimental: (§6) Human umbilical vein endothelial cells (HUVECs) and A7r5 SMCs were provided by Resource Center (SB3, NSC 100-2325-B-080-001), National Research Program for Biopharmaceuticals (Hsinchu, Taiwan). HUVECs were maintained in M199 (Life Technologies, Carlsbad, CA) with 25U/ml heparin (Sigma-Aldrich, St. Louis, MO), 10% fetal bovine serum (FBS) and endothelial cell growth supplement (ECGS; Millipore, Billerica, MA). A7r5 SMCs were grown in Dulbecco’s Modified Eagle’s Medium (DMEM) containing high glucose, supplemented with 10% fetal bovine serum. Human U937 cells were grown in RPMI1640 with 10% FBS.
A7r5 cells and HUVECs were growth-arrested and then stimulated with 10% FBS or 10 ng/ml TNF-αovernight after serum starvation as indicated in the figure legend. Briefly, trypan blue-excluding cells were counted with a hemocytometer, and data were analyzed using GraphPad Prism Software (San Diego, CA) as in previous studies. A second observer performed a similar analysis to verify the initial findings.
as §4
Fig 6 R1R2 reduces SMC proliferation and migration. (A) A7r5 SMC growth study over 96 hours. After serum starvation and treatment with R1R2 or scrambled peptides for 36 hours, cells were stimulated with 10% FBS over 96 hours. Cells were counted at the indicated time in the figure (n = 5). (B) A7r5 SMCs were pretreated with R1R2 or scramble peptide for 36 hours. […] (C) Quantitation of SMC migration in the scratch wound healing assay was performed by subtracting the cell-free area 30 hours after PDGF-BB stimulation from the cell-free area in the beginning (n = 5). * indicates p<0.05 and ** p< 0.01.

ICAM-1 [3] = assay: Western blot of ICAM-1 in TNF-α-treated HUVECs; assay type: cell-based, human; details: in words
Experimental: as §6
Tissues or cells were homogenized with RIPA buffer supplemented with protease inhibitor cocktail (Sigma-Aldrich, St. Louis, MO). Cell lysates were spun at 12,000 rpm for 15 min at 4°C, then electrophoresed on 10% SDS-PAGE gel and transferred to nitrocellulose. […]
Fig 8 R1R2 decreases TNF-α-induced monocyte U937 cell adhesion to HUVECs and transendothelial migration and reduces ICAM-1 and VCAM-1 levels. […] Calcein-AM labeled U937 monocyte adhesion to TNF-α HUVECs was quantitated by fluorescence intensity. Microscopic images showing U937 monocytes adhering to HUVECs as assessed by in vitro adhesion assay. […]

CD45 (+) leukocytes = assay: CD45 IHC, leukocyte infiltration in carotid intima-media; assay type: in vivo, FVB/NJ (FVB) mice
Experimental: as §1, §2, §3, §4

Ki-67 (+) cells = assay: Ki-67 IHC, cell proliferation in carotid intima and media; assay type: in vivo, FVB/NJ (FVB) mice; details: 7 days post-surgery, mean ± SEM, n = 5 each
Experimental: as §1, §2, §3, §5

[4] = test system: left common carotid artery (flow-induced vascular remodeling); assay: Morphometric analysis of carotid artery after complete common carotid ligation; assay type: in vivo, FVB/NJ (FVB) mice; details: for EEL Area / Intima+Media / Intima/Media Ratio / Lumen: 20 μM peptide in 50 μl F-127 pluronic gel, mean ± SEM
Description: as §1
5 groups of animals were processed for morphometric analysis. Mice were fixed with 10% formalin 7 or 14 days after the surgery. The common carotid arteries were harvested and embedded in paraffin.
as §4

[5] = 7 day after ligation, periadventitial, scrambled n = 4, R1R2 n = 10
[6] = 14 day after ligation, periadventitial, scrambled n = 4, R1R2 n = 9

GLNGENQKEPEQGERGEAGPPLSGLSGNNQGRPSLPGLNGENQKEPEQGERGEAGPP [R1R2]
effect on FN intensity (FN; 7 and 14 days after ligation, R1R2 vs scrambled peptide, in words): no significant decrease of FN intensity
FN IHC intensity in intima-media area (FN; 7 days after ligation, R1R2 n = 6, scrambled n = 6): 0.153 ± 0.012
FN IHC intensity in intima-media area (FN; 14 days after ligation, R1R2 n = 7, scrambled n = 7): 0.309 ± 0.005
ICAM-1 (+) area in intima-media (ICAM-1 [1]): 11.58 ± 2.387%
effect on FN-collagen type I binding [2]: blocked the binding of FN to collagen type I in a dose-dependent manner
effect on A7r5 SMC growth (A7r5 SMCs; 48–96 hours, in comparison with scrambled peptide, in words): significantly inhibited A7r5 SMC growth after 48–96 hours
A7r5 SMC growth, cell number (A7r5 SMCs; 48hr, 10% FBS after serum starvation and 36 hours peptide treatment, hemocytometer, trypan blue, mean ± SD, n = 5): 1.5 ± 0.224 x 10^5
ICAM-1 expression on HUVECs (ICAM-1 [3]): significantly decreased; also recorded: transient and detected earlier than the effect on VCAM-1 expression
CD45 (+) area in intima-media (CD45 (+) leukocytes; 7 days after ligation, percent of positively stained area, mean ± SEM, R1R2 n = 5, scrambled n = 6): 0.094 ± 0.035%
reduction of inflammatory cell infiltration into the vessel (CD45 (+) leukocytes; carotid artery, periadventitial pluronic gel): ~78%
proliferation index (Ki-67 (+) cells/total cells) (Ki-67 (+) cells): 11.20 ± 0.62%
effect on neointimal formation ([4]; 7 and 14 days post-ligation, 20 μM peptide in pluronic gel, periadventitial, in words): dramatic attenuation in injury-induced neointimal formation
EEL Area [4, 5]: 64905 ± 3680 (n = 10) μm^2
Intima+Media [4, 5]: 29208 ± 884 (n = 10) μm^2
Intima/Media Ratio [4, 5]: 0.0424 ± 0.0133 (n = 10)
Lumen [4, 5]: 32038 ± 2870 (n = 10) μm^2
effect on intima-media area, EEL area and intimal/medial ratio ([4]; 7 days and 14 days after ligation, compared to the control mice, in words): significantly reduced intima-media areas (Intima + Media), EEL area and intimal/medial ratios
EEL Area [4, 6]: 51482 ± 4981 (n = 9) μm^2
Intima+Media [4, 6]: 25706 ± 1220 (n = 9) μm^2
Intima/Media Ratio [4, 6]: 0.0709 ± 0.0231 (n = 9)
Lumen [4, 6]: 25776 ± 4286 (n = 9) μm^2
effect on lumenal area ([4]; day 7 and 14 after injury, compared to the controls, in words): no significant decrease in the lumenal area
